Experimental data published in patent US20110262566A1, “NOVEL USEFUL THERAPEUTIC AGENT FOR LOWER URINARY TRACT SYMPTOM” (DAINIPPON SUMITOMO PHARMA CO., LTD., priority 2008, published 2011).

Columns and labels:
small DRG neurons [1] = assay: Test Example 2: combination effect with α1-adrenergic receptor blocker (high-K-induced rise in membrane potential, DiBAC4(3) fluorescence); format: cell-based, rat; conditions: control 72±3%
Procedure: This test was performed using male SD strain rats at 6 to 7 weeks of age after birth. The animals were reared in metal cages, and allowed to take food (CE-2; CLEA Japan) and water ad libitum. Rat spinal cord was dissected under halothane anesthesia. DRG tissue was removed from the spinal cord under a stereoscopic microscope, and recovered into an ice-cooled culture dish containing DMEM. The DRG tissue was digested using 0.25% trypsin and 0.38% collagenase, and DRG neurons were isolated. The DRG neurons were seeded to a cover glass coated with Poly-L-Lysine and laminin, and cultured. On the day after the start of cultivation, the DRG neurons were loaded with 5 μM DiBAC4(3) in the presence of 5% gaseous carbon dioxide at 37° C. for 1 hour or more. Thereafter, the neurons were transferred to an assay buffer solution (pH 7.3; 10 mM HEPES, 145 mM NaCl, 5 mM KCl, 2 mM CaCl2, 1 mM MgCl2, mM Glucose), and the fluorescence intensity of each DRG neuron was measured using the image analytical system AQUACOSMOS (Hamamatsu Photonics). When small DRG neurons were selected and stimulated with 60 mM high-concentration K solution (pH 7.3; 10 mM HEPES, 90 mM NaCl, 60 mM KCl, 2 mM CaCl2, 1 mM MgCl2, 10 mM Glucose), a rise in membrane potential was observed. When the 60 mM high-concentration K solution was replaced with the assay buffer solution, the transiently-elevated membrane potential fell rapidly. […]

small DRG neurons [2] = assay: Test Example 1: action of the compound A on C-fiber activation (high-K-induced rise in membrane potential, DiBAC4(3) fluorescence); format: cell-based, rat; conditions: compound A 3 μM pretreated between 1st and 2nd 60 mM K stimulations; control 72±3%
Procedure: This test was performed using male SD strain rats at 6 to 7 weeks of age after birth. The animals were reared in metal cages, and allowed to take food (CE-2; CLEA Japan) and water ad libitum.
Rat spinal cord was dissected under halothane anesthesia. DRG tissue was removed from the spinal cord under a stereoscopic microscope, and recovered into an ice-cooled culture dish containing DMEM. The DRG tissue was digested using 0.25% trypsin and 0.38% collagenase, and DRG neurons were isolated. The DRG neurons were seeded to a cover glass coated with Poly-L-Lysine and laminin, and cultured.
On the day after the start of cultivation, the DRG neurons were loaded with 5 μM DiBAC4(3) in the presence of 5% gaseous carbon dioxide at 37° C. for 1 hour or more. Thereafter, the neurons were transferred to an assay buffer solution (pH 7.3; 10 mM HEPES, 145 mM NaCl, 5 mM KCl, 2 mM CaCl2, 1 mM MgCl2, mM Glucose), and the fluorescence intensity of each DRG neuron was measured using the image analytical system AQUACOSMOS (Hamamatsu Photonics).
When small DRG neurons were selected and stimulated with 60 mM high-concentration K solution (pH 7.3; 10 mM HEPES, 90 mM NaCl, 60 mM KCl, 2 mM CaCl2, 1 mM MgCl2, 10 mM Glucose), a rise in membrane potential was observed. When the 60 mM high-concentration K solution was replaced with the assay buffer solution, the transiently-elevated membrane potential fell rapidly. […]

## COc1ccccc1N1CCN(CC(O)COc2cccc3ccccc23)CC1 (stereo not drawn) [naftopidil]
Small DRG neurons [1]; naftopidil 30 μM alone, treated between 1st and 2nd 60 mM K stimulations
  rise in membrane potential (ΔF/F), second rise relative to first rise as 100%: 40±5%

## O=C1Nc2ccccc2[C@H](c2ccccc2)N1C1CCN(Cc2cccc(OC(F)(F)F)c2)CC1 [compound A, (+)-3-{1-[3-(trifluoromethoxy)benzyl]piperidin-4-yl}-4-phenyl-3,4-dihydro-2(1H)-quinazolinone]
Small DRG neurons [2]
  rise in membrane potential (ΔF/F), second rise relative to first rise as 100%: 66±6%

## CCOc1ccccc1OCCN[C@H](C)Cc1ccc(OC)c(S(N)(=O)=O)c1 [tamsulosin]
Small DRG neurons [1]; tamsulosin 0.1 μM alone, pretreatment, 60 mM K stimulation
  change in membrane potential: nearly the same extent as with the control
